Measured values published in ChEMBL document CHEMBL1146186, “Synthesis and biological evaluation of type VI beta-turn templated RGD peptidomimetics” (Bioorg Med Chem Lett, 2006).

Legend:
[1] = target: Integrin alpha-V/beta-5 (Homo sapiens) (UniProt P06756+P18084); test: Inhibition of alpha-V-beta-5 receptor; type: protein-complex assay
[2] = target: Integrin alpha-V/beta-3 (Homo sapiens) (UniProt P05106+P06756); test: Inhibition of alpha-V-beta-3 receptor; type: protein-complex assay

SMILES | Activity [1] [µM] | Activity [2] [µM]
N=C(N)NCCC[C@@H]1NC(=O)[C@H]2CCCC[C@H](NC(=O)[C@H](CC(=O)O)NC(=O)CNC1=O)C(=O)N2 | > 5 | 0.28
N=C(N)NCCC[C@@H]1NC(=O)[C@@H]2CCCC[C@@H](NC(=O)[C@H](CC(=O)O)NC(=O)CNC1=O)C(=O)N2 | > 5 | 0.615
N=C(N)NCCC[C@@H]1NC(=O)[C@H]2C/C=C\C[C@H](NC(=O)[C@H](CC(=O)O)NC(=O)CNC1=O)C(=O)N2 | 0.538 | 0.159
N=C(N)NCCC[C@@H]1NC(=O)[C@@H]2C/C=C\C[C@@H](NC(=O)[C@H](CC(=O)O)NC(=O)CNC1=O)C(=O)N2 | > 5 | 0.925
